Measurements published in the NIST ThermoML archive (doi:10.1016/j.jct.2005.04.019).

Columns and labels:
[1] = xn = mol fraction of the nth substance listed; details: 298.15 K, 101 kPa, Liquid; for speed of sound: Quartz crystal interferometer (Mittal Enterprises, India)
[2] = 298.15 K, 101.33 kPa, Liquid; for viscosity: Capillary tube (Ostwald / Ubbelohde) method; for speed of sound: Quartz crystal interferometer (Mittal Enterprises, India); for mass density: Vibrating tube method

CC1CCCCC1 [methylcyclohexane] + CC(C)O
[1]
Details	mass density [kg/m3]	speed of sound [m/s]	viscosity [mPa·s]
x1 = 0.0648	778.57	–	1.771
x1 = 0.1102	776.98	–	1.589
x1 = 0.1123	–	1143	–
x1 = 0.1475	775.78	–	1.462
x1 = 0.2041	774.1	–	1.315
x1 = 0.2053	–	1143	–
x1 = 0.2422	773.07	–	1.232
x1 = 0.303	771.57	–	1.113
x1 = 0.3034	–	1144	–
x1 = 0.3511	770.5	–	1.034
x1 = 0.3937	–	1148	–
x1 = 0.3947	769.61	–	0.975
x1 = 0.4603	768.4	–	0.896
x1 = 0.4954	767.81	–	0.86
x1 = 0.5031	–	1155	–
x1 = 0.5589	766.86	–	0.801
x1 = 0.578	766.6	–	0.789
x1 = 0.5788	–	1160	–
x1 = 0.6707	765.53	–	0.734
x1 = 0.6715	–	1168	–
x1 = 0.7466	–	1176	–
x1 = 0.7715	–	1178	–
x1 = 0.7727	764.75	–	0.695
x1 = 0.8299	–	1184	–
x1 = 0.8993	–	1194	–
x1 = 0.9011	764.45	–	0.679
x1 = 0.9472	–	1201	–

CC1CCCCC1 [methylcyclohexane] + CCC(C)O
[1]
Details	mass density [kg/m3]	speed of sound [m/s]	viscosity [mPa·s]
x1 = 0.0988	–	1207	–
x1 = 0.1026	796.47	–	2.207
x1 = 0.1536	793.6	–	1.933
x1 = 0.2015	791.01	1199	1.72
x1 = 0.2544	788.28	–	1.509
x1 = 0.3058	–	1193	–
x1 = 0.3307	784.56	–	1.281
x1 = 0.3604	783.2	–	1.216
x1 = 0.3993	–	1190	–
x1 = 0.4086	781.07	–	1.107
x1 = 0.4679	778.61	–	1.002
x1 = 0.5007	–	1189	–
x1 = 0.5012	777.3	–	0.953
x1 = 0.5872	774.19	–	0.856
x1 = 0.6001	–	1189	–
x1 = 0.6926	770.91	–	0.77
x1 = 0.7	–	1192	–
x1 = 0.7737	–	1196	–
x1 = 0.7844	768.54	–	0.729
x1 = 0.8916	766.35	–	0.696
x1 = 0.8996	–	1203	–
x1 = 0.9489	–	1206	–

CC1CCCCC1 [methylcyclohexane] + CCO
[1]
Details	mass density [kg/m3]	speed of sound [m/s]	viscosity [mPa·s]
x1 = 0.0499	782.02	–	1.034
x1 = 0.1024	779.14	–	0.987
x1 = 0.1037	–	1146	–
x1 = 0.1492	776.99	–	0.949
x1 = 0.1893	–	1151	–
x1 = 0.194	775.25	–	0.915
x1 = 0.2467	773.53	–	0.886
x1 = 0.313	771.77	–	0.853
x1 = 0.3143	–	1157	–
x1 = 0.3363	771.24	–	0.841
x1 = 0.4007	–	1162	–
x1 = 0.4015	769.94	–	0.81
x1 = 0.4438	769.21	–	0.79
x1 = 0.4752	768.72	–	0.776
x1 = 0.4788	–	1166	–
x1 = 0.5844	767.23	–	0.732
x1 = 0.5884	–	1173	–
x1 = 0.6993	–	1181	–
x1 = 0.7002	765.95	–	0.692
x1 = 0.8147	765.03	–	0.672
x1 = 0.8209	–	1191	–
x1 = 0.8864	764.74	–	0.667
x1 = 0.8943	–	1196	–
x1 = 0.9473	–	1202	–

CCCC(C)O (stereo not given) [pentan-2-ol]
[2]
Details	mass density [kg/m3]	speed of sound [m/s]	viscosity [mPa·s]
–	805.4	1235	3.421

CCCC(C)O (stereo not given) [pentan-2-ol] + CC1CCCCC1
[1]
Details	mass density [kg/m3]	speed of sound [m/s]	viscosity [mPa·s]
x2 = 0.067	801.75	–	2.764
x2 = 0.1011	799.88	–	2.501
x2 = 0.1026	–	1227	–
x2 = 0.1561	796.91	–	2.148
x2 = 0.2018	–	1219	–
x2 = 0.2088	794.12	–	1.863
x2 = 0.2653	791.21	–	1.618
x2 = 0.2991	789.53	–	1.488
x2 = 0.3077	–	1211	–
x2 = 0.3581	786.7	–	1.317
x2 = 0.3974	784.89	–	1.219
x2 = 0.3999	–	1206	–
x2 = 0.4481	782.64	–	1.113
x2 = 0.4885	780.93	–	1.044
x2 = 0.4976	–	1203	–
x2 = 0.5997	–	1202	–
x2 = 0.6007	776.49	–	0.901
x2 = 0.6973	773.05	–	0.819
x2 = 0.6984	–	1204	–
x2 = 0.8001	769.78	–	0.75
x2 = 0.8007	–	1207	–
x2 = 0.8981	767.12	–	0.704
x2 = 0.8998	–	1211	–
x2 = 0.9488	–	1211	–

CC(C)O [propan-2-ol]
[2]
Details	mass density [kg/m3]	speed of sound [m/s]	viscosity [mPa·s]
–	781.06	1142	2.098
